Entries after “also recorded” stand apart in the source; their conditions may differ. Like-named read-outs stand apart in the source and are kept apart here.
Key:
[1] = biological target: T1, myosin light chain kinase (MLCK) (Gallus gallus, UniProt P11799); experiment: Reconstituted enzyme assay, MLCK; format: biochemical, chicken
T1 construct: chicken gizzard MLCK prepared as described; from tissue; host or cells: chicken gizzard
Experimental: (§1) [table] […] The rationale for using BV-2 cells in high throughput screening was the paucity of well-characterized human microglial cell lines, and the relevant activation responses and signaling pathways reflect those seen in human and rodent primary microglial cultures. Compounds were tested for their effects on NO accumulation in conditioned media of LPS-stimulated BV-2 cells by measurement of nitrite production by the Griess assay as a read-out for iNOS activity, as described previously. Stock solutions of compounds were prepared in dimethylsulfoxide (DMSO) or in water. When stock solutions were prepared in DMSO, control wells contained the same final concentration of DMSO as the compound-containing wells. […] Solutions of compounds for cell treatments were diluted to a 10× final concentration by dilution of stock solutions in αMEM media. […] Reconstituted enzyme assays were done as described s. The sources of protein kinases were: bovine heart PKA from Promega, rat brain PKC from Calbiochem, rat CaMKII from New England Biolabs, chicken gizzard MLCK prepared as described, and a p38 MAP kinase kit containing recombinant Xenopus p38-MAPK and its human substrate from Upstate Biotechnology. The catalytic domains of these protein kinases retain a high level of amino acid sequence identity across mammalian species, consistent with the lack of documented major differences across species for the in vitro catalytic activity of a given kinase.

[2] = biological target: protein kinase C (PKC); experiment: Reconstituted enzyme assay, PKC; format: biochemical, rat
Experimental: as §1

[3] = tested on: WT mice; experiment: Endotoxin (LPS)-mediated acute lung injury; format: in vivo, mouse; conditions: 2.5 mg/kg IP 1 hour prior to LPS 10 mg/kg IP; 24 hours
Experimental: To confirm the specific role of EC MLCK in the reduced susceptibility of KO mice to endotoxin-mediated lung injury, a representative composition of this invention was used to determine whether pharmacologic inhibition of MLCK would also reduce LPS-induced lung injury. (See, examples 25-26, below.) WT mice were treated with 2.5 mg/kg of a representative MLCK inhibitor (e.g., cpd MW01-022AZ) 1 hour prior to administration of LPS.
Endotoxin-mediated lung injury. LPS (Sigma, St. Louis, Mo.) (10 mg/kg) was administered via intraperitoneal (ip) injection. Animals were allowed to recover for 24 hours prior to determination of lung injury. Control animals received an equivalent volume of sterile saline.
[drawing 161] are shown to be comparatively selective (using assay procedures and data analyses previously described) for inhibition of MLCK and related enzymes such as Rho kinase, and are bioavailable in various other animal models of disease. […] The stimulus in this example was IP injection of 10 mg/kg body weight of the bacterial endotoxin, lipopolysaccharide (LPS). The treatment with MW01-022AZ represents a clinically relevant dose of a kinase inhibitor therapeutic based on prior art with other kinases. Other compositions of this invention, having the structural relationships described and/or illustrated above, can also be employed.
Histologic analysis of lung injury after LPS exposure. […]

[4] = biological target: T2, CaMKII (Rattus norvegicus, UniProt P11275); experiment: Reconstituted enzyme assay, CaMKII; format: biochemical; conditions: Table 6; read-out: Inhibition CAMKII
T2 construct: purchased New England Biolabs
Experimental: as §1

[5] = tested on: Wistar rats at P7; experiment: Hypoxia-ischemia induced brain damage, hemispheric weight; format: in vivo
From the text: Induction of hypoxia-ischemia in postnatal day seven (P7) rats. Hypoxic-ischemic injury in P7 rats was induced using the well-characterized method of unilateral carotid ligation followed by hypoxia. This age is approximately equivalent to the 34 week gestation human infant. Male and female Wistar rats at P7 were removed from the mother and anesthetized with halothane (3.5% for induction and 1.5% for maintenance) 50% oxygen-balance nitrogen delivered via facemask. The right common carotid artery was identified and gently separated from the vagus nerve. The vessel was ligated with double 6-0 silk sutures to ensure cessation of blood flow. […]
Animals were sacrificed by halothane overdose at 7 days after hypoxia. […] Differences in weight between the hypoxic-ischemic and control contralateral hemisphere were calculated for each animal using the formula: 100*(C−I)/C=% damage where I represents the weight of the ipsilateral and C the weight of the contralateral hemisphere.
Data Analysis. All data are expressed as mean±SEM. The degree of hypoxic-ischemic brain injury after treatment with drug or saline is expressed as the percentage of reduction in the tissue weight of the hemisphere ipsilateral to carotid ligation. This was calculated as a ratio of the right (ipsilateral, ischemic) to the left (contralateral, non-ischemic) hemispheric weights as described previously in the literature. […]

[6] = biological target: death associated protein kinase (DAPK) (Homo sapiens, UniProt P53355); experiment: Enzyme assay, DAPK; format: biochemical; conditions: for IC50: Table 6, read-out: Inhibition DAPK
Experimental: Therefore, compound MW01-026Z was selected as a starting point for variations on component A (Table 6). […] However, none of the A variations appeared to improve the activity and selectivity profile of CompoundMW01-026Z. (For purposes of illustration, only, component G was maintained throughout as an acyl moiety, while component R2 was varied as shown. All such compositions are available using the synthetic techniques described herein. Enzyme assays were conducted per procedures described elsewhere herein.) A more comprehensive structure activity relationship is summarized in Table 7, below.
With reference to the compositions of Table 3 and the enzyme assay techniques described elsewhere herein, Table 7 provides structural activity relationships observed, in accordance with this invention.

[7] = Table 6, read-out: Inhibition MLCK
[8] = Table 6, read-out: Inhibition KC

T1 sequence (P11799 935-1906): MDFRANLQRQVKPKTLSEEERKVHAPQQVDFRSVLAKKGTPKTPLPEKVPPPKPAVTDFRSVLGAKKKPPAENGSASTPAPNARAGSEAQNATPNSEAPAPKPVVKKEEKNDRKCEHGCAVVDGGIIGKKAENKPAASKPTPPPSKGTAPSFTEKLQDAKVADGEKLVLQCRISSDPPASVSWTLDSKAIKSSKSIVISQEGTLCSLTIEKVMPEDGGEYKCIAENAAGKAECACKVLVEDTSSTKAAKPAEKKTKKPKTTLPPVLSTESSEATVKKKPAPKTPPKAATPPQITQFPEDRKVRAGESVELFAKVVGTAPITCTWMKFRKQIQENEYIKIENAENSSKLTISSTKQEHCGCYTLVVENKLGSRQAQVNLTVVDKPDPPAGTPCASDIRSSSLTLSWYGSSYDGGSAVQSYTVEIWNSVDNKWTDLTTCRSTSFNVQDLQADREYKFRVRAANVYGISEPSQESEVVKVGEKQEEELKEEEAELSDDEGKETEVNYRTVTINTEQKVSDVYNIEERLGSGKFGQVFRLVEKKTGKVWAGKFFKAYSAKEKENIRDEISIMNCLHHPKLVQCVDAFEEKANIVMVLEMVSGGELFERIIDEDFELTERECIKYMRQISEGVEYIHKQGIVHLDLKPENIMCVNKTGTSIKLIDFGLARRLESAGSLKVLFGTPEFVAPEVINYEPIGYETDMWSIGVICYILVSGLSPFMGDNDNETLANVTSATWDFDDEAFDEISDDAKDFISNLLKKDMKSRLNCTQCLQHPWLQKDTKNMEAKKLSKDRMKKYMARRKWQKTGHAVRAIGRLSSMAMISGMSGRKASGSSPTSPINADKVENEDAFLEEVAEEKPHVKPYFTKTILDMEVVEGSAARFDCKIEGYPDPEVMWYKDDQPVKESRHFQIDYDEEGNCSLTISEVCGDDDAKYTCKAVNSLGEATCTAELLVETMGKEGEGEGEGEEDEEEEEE
Sequence of death associated protein kinase (DAPK) (P53355 whole entry, species assumed): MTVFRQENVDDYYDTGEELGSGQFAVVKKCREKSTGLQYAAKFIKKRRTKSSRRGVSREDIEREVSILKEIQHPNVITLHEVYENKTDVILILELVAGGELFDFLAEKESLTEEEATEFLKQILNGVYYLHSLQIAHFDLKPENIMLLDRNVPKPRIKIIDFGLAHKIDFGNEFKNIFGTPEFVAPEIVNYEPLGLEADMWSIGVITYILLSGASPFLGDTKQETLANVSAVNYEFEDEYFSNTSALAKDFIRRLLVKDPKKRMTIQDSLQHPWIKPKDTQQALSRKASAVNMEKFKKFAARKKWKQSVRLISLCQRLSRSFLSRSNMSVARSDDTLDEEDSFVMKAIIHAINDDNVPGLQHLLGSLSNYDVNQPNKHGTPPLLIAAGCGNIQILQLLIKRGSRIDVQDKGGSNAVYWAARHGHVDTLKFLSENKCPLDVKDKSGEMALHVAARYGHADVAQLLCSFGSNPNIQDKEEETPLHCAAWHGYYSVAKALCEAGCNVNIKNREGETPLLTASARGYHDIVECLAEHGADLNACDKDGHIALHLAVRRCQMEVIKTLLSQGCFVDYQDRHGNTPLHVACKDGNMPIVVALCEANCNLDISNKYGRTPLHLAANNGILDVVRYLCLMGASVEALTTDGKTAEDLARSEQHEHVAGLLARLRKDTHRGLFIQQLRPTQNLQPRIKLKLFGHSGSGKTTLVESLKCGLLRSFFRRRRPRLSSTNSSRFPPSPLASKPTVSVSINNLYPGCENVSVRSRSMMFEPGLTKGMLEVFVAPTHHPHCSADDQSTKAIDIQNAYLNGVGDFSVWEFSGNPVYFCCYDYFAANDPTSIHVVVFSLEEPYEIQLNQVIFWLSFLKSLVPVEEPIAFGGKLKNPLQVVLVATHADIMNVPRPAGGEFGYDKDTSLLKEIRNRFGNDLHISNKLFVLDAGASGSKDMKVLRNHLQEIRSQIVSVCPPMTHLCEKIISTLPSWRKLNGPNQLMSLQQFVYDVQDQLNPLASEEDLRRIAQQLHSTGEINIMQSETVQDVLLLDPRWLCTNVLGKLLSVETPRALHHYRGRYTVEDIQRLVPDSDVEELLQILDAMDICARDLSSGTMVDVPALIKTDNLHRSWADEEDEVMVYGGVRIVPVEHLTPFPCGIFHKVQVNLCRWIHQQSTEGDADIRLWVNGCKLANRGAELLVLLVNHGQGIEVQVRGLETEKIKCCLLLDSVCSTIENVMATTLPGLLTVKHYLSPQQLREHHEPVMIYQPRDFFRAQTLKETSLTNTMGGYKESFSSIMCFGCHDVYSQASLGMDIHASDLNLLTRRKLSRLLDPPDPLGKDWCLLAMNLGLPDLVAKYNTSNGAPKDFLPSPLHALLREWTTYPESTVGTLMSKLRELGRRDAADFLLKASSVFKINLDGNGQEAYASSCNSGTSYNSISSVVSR
T2 sequence (P11275 1-325 limits assumed): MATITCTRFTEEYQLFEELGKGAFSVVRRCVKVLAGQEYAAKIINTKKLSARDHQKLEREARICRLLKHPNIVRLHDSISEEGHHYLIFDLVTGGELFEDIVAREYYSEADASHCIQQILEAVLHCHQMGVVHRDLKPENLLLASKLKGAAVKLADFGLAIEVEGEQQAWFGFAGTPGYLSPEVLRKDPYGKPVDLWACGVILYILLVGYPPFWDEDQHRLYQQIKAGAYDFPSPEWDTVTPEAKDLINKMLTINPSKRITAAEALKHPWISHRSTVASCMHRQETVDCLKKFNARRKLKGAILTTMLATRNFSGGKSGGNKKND

Row | IC50 [1, 7] | IC50 [2, 8] | Structure (SMILES) | IC50 [4] | IC50 [6] | also measured
1 | – | – | COc1ccc(S(=O)(=O)N(CCO)c2ccccc2CN(C)C/C=C/c2ccc(Cl)cc2)cc1 [Compound 5, KN93, reference compound] | – | – | IC50 ([1]; γ-[32P]-ATP, synthetic peptide substrate, mean ± SEM, read-out: IC50 MLCK): 9.8 ± 0.7 µM; IC50 ([2]; γ-[32P]-ATP, synthetic peptide substrate, read-out: IC50 PKC): > 100 µM
2 | – | – | N=c1ccc(Cl)nn1CCCCCCCCCCC(=O)Nc1ccc(-c2ccccc2)nn1 [MW01-022AZ] | – | – | LPS-induced lung injury (histology) [3]: no evidence of lung injury; also recorded: close to normal
3 | < 20 µM | 50 to 100 µM | N=c1cc2c(nn1CCCCCCCCCCC(=O)Nc1cc3c(nn1)-c1ccccc1CC3)-c1ccccc1CC2 [MW01-055V] | – | 50 to 100 µM | –
4 | > 100 µM | 20 to 50 µM | N=c1ccc(-c2ccccc2)nn1CCCCCCCCCCC(=O)Nc1ccc(-c2ccccc2)nn1 [MW01-125AZ] | > 100 µM | 20 to 50 µM | –

Row | Structure (SMILES) | IC50 [1, 7] | IC50 [2, 8] | IC50 [4] | IC50 [6] | also measured
5 | N=c1cc2c(nn1CCCCCCCCCCC(=O)Nc1ccc(-c3ccccc3)nn1)-c1ccccc1CC2 [MW01-026Z] | 20 to 50 µM | > 100 µM | > 100 µM | < 20 µM | percent weight loss in the ischemic hemisphere compared to the contralateral hemisphere ([5]; 5 mg/kg IP 1 hour after carotid ligation, 7 day recovery to P14, mean±SEM, n=7): 8.2±5.5%; mortality ([5]; 5 mg/kg IP, versus vehicle group): no differences in mortality; DAPK inhibitory activity ([6]; comparison among compounds): most potent DAPK inhibitor

Source: patent US7888357B2, “Anti-inflammatory and protein kinase inhibitor compositions and related methods for downregulation of detrimental cellular responses and inhibition of cell death” (Northwestern University, priority 2001, dated 2011)
